Tested on: nuclear p65 activation
Experiment: TransAM NF-κB ELISA of nuclear p65 activation in mdx costal diaphragm
Assay type: in vivo, mdx mice
Description: Cytosolic and nuclear fractions were obtained from isolated costal diaphragm using techniques that were slightly modified from Kumar and Boriek (2003). The muscles were removed from vehicle and drug-treated euthanized mdx mice at the end of the treatment period, and were flash-frozen and stored at −80° C. for a period of 1 to 4 weeks. The muscles were then thawed and weighed before being homogenized on ice using a mortar and pestle in low salt lysis (LSL) buffer (1 mg muscle wet weight/18 μl solution; in mM: 10 HEPES, 10 KCl, 1.5 MgCl2, 0.1 EDTA, 0.1 EGTA, 1 dithiothreitol (DTT), 0.5 phenylmethylsulfonylfluoride (PMSF); 0.5 mg/ml benzamidine, 4.0 μl/ml protease inhibitor cocktail Sigma #8340 (PIC) to produce the following final concentrations—2.1 μg/ml leupeptin, 3.85 μg/ml aprotinin, 0.416 mM AEBSF (Sigma A8456), 16 μM bestatin, 6 μM pepstatin A, 5.6 μM E64; pH 7.9). To lyse the cells, the ground tissue was then subjected to 2 freeze-thaw cycles (5 min freeze on dry ice followed by thawing at room temperature), and was subsequently vortexed and centrifuged (13,000 rpm, 15 s). The supernatant cytosolic extract was immediately frozen (−80° C.) for subsequent analyses as needed, while the nuclear pellet was washed in 50 μl LSL (2 times) before being re-suspended on ice in a high salt nuclear extraction buffer (in mM: 20 HEPES, 420 NaCl, 1 EDTA, 1 EGTA, 1 DTT, 0.5 PMSF; 25% glycerol, 0.5 mg/ml benzamidine, 4.0 μl/ml PIC; pH 7.9) at a ratio of 4 μl of solution per mg muscle wet weight. Preparations were incubated on ice for 30 min and vortexed for 10 s every 5 min before being centrifuged (13,000 rpm, 6 min) at 4° C. The supernatant nuclear extract was then removed and frozen (−80° C.) for subsequent analyses. Potential contamination of nuclear extracts with cytoplasmic proteins was less than 5%. Protein determinations for each fraction were obtained using the Bradford assay.
The Trans-Am assay (Active Motif; Carlsbad, Calif.) was used to determine nuclear NF-κB activation in nuclear fractions which were applied to the 96 well ELISA plates at 2-20 μg protein. The p65 primary antibody (catalogue number 40096) was used to detect p65 bound to oligonucleotide in vehicle and drug-treated preparations in accordance with kit instructions. A nuclear extract from Jurkat cells was routinely run as a positive control in association with each set of control and experimental samples.
Horizontal dashed lines indicate average levels observed in nondystrophic, vehicle, and UDCA treated preparations as indicated. In each case, percent recovery is determined by dividing the mean improvement observed in the UDCA treated preparation (UDCA-vehicle) from the deficit observed in the vehicle-treated preparation (nondystrophic-vehicle mdx). Mdx mice were treated for 30 days beginning at 1 month of age. Horizontal dashed lines in (A) and (B) representing nondystrophic values were obtained from a cohort of nondystrophic mice at 2 months of age. […] The results were obtained from two separate groups of vehicle and UDCA treated preparations that were assayed using two different 96 well plates. For each plate, the absorbance for each sample was normalized to the average absorbance determined for the vehicle-treated preparations on that plate. […] Millman et al., 2007. N is the number of mice and preparations in each condition. Shown are the means and standard errors. […] indicate p<0.05 and p<0.01, respectively, between vehicle and UDCA treated preparations. […]

## S=C(S)N1CCCC1 [PDTC, pyrrolidine dithiocarbamate]
Mature adult mdx, PDTC 50 mg/kg/day ip 30 days, not significant, p=0.4, N=4 vehicle, N=3 PDTC
  reduction of nuclear p65 activation: 23%
Young adult mdx, PDTC 60 days beginning at 30 days of age, N=5 per group
  effect on nuclear p65 activation: no effect

Source: patent US20100292306A1, “Compositions And Methods For The Treatment Of Muscular Dystrophy” (priority 2005, published 2010)
